Results: paper PMC9184463, “Structural basis of ligand binding modes of human EAAT2” (Nature Communications, 2022)

Biological target: T1, hEAAT2 mutant D475A (Homo sapiens, UniProt P43004, D475A)
T1 construct: Strep Tag II (N); superfolder GFP (sfGFP) (N); expressed in transfected cells; host or cells: HEK293T
Assay: whole-cell patch-clamp, hEAAT2 mutant D475A in HEK293T cells
Type: cell-based
Settings: 0 mV; for WAY-213613-inhibited current, normalized (MEAN): D475A
Method: Human embryonic kidney 293T (HEK293T) cells were cultured in Dulbecco’s Modified Eagle Medium (DMEM, Gibco) media supplemented with 15% (v/v) fetal bovine serum (FBS, PAN-Biotech) at 37 °C with 5% CO2. HEK293T cells were grown in the culture dishes (d = 3.5 cm) (Thermo Fisher Scientific) for 24 h and then 1 μg hEAAT2 wild-type and mutant plasmids for per dishes were used to transiently transfect HEK293T using 0.7 μg Lipofectamine 2000 Reagent (Thermo Fisher Scientific). Cells were analyzed using electrophysiological experiments between 24 and 40 h after transfection at room temperature (21–25 °C).
Electrophysiological experiments were performed as described previously with a minor modification. External buffer contained 140 mM NaCl, 2 mM MgCl2, 2 mM CaCl2, and 10 mM HEPES (pH = 7.4 with NaOH and osmolarity of ∼310 mosmol L^−1) and while internal pipette solution comprised of 130 mM NaSCN, 2 mM MgCl2, 10 mM EGTA, 10 mM HEPES (pH = 7.4 with NaOH and osmolarity of ∼310 mosmol L^−1) and 10 mM glutamate. 50 mM WAY-213613 stock solutions were prepared in dimethyl sulfoxide (DMSO), followed by dilutions to working concentrations with the above-mentioned external buffer. […] Whole cell patch-clamp experiment recordings were made from isolated GFP-positive HEK293T cells (hEAAT2 wild type and mutants). In all, 3–6 MΩ was used to fire a polished pipette (Sutter Instrument). […] Cells were immersed in the above-mentioned external buffer supplemented with a specified concentration of glutamate or WAY-213613. Glutamate-induced anion current, Na^+-dependent anion leak current and glutamate transport current or WAY-213613 inhibited anion leak currents were recorded using an EPC-10 amplifier (HEKA Electronic) at a 20 kHz sample rate with low pass filter at 5 kHz. All experiments were executed at 0 mV. After the cell current was stabilized, glutamate or WAY-213613 was sustained at the indicated concentrations from external dosing for at least 6 s. Subsequently, the cell was washed away with external buffer to start a new round of applications or end the experiment. The plateau currents were used for the following calculations. For analysis, the data was acquired by PatchMaster program (HEKA Electronic) at 5 s after recording. Nonlinear dose–response relationships were fitted into a Michaelis–Menten-like equation shown as below to obtain the apparent Km and Ki values in the presence of glutamate or WAY-213613.1 I/Imax=Km/i/C+Km/i In this equation, I represent the current at different glutamate or inhibitor concentrations, and Imax represents the maximal current at the saturating concentration of glutamate or inhibitor. [C] represents the concentration of glutamate or inhibitor. Km/i represents the apparent constant.

T1 sequence (P43004 whole entry D475A): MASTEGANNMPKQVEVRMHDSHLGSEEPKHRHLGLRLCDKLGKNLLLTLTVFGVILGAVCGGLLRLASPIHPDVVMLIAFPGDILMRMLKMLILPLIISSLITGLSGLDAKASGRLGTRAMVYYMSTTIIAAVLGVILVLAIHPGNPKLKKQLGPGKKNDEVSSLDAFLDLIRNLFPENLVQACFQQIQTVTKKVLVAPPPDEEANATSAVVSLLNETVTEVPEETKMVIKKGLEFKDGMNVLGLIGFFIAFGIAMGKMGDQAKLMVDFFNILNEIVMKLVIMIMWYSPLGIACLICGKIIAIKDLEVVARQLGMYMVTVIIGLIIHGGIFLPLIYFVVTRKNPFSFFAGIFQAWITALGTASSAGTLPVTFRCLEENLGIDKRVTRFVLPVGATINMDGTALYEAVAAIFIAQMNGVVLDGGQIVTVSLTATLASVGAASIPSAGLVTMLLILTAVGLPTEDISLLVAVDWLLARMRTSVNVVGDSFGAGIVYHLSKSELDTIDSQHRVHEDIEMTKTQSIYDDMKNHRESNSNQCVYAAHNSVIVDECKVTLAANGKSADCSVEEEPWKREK

WAY-213613-inhibited current, normalized (MEAN) (0.3 μM WAY-213613, normalized to current at 100 μM): 0.06104 | WAY-213613-inhibited current, normalized (MEAN) (1 μM WAY-213613, normalized to current at 100 μM): 0.08742 | WAY-213613-inhibited current, normalized (MEAN) (3 μM WAY-213613, normalized to current at 100 μM): 0.1387 | WAY-213613-inhibited current, normalized (MEAN) (10 μM WAY-213613, normalized to current at 100 μM): 0.2967 | WAY-213613-inhibited current, normalized (MEAN) (30 μM WAY-213613, normalized to current at 100 μM): 0.647 | WAY-213613-inhibited current, normalized (MEAN) (100 μM WAY-213613, normalization reference): 1 | Ki (D475A mutant, read-out: apparent Ki): 30.5 µM
SMILES: NC(CC(=O)Nc1ccc(Oc2cc(F)c(F)cc2Br)cc1)C(=O)O (stereo not shown) [WAY-213613]
